This is an account of results in PMC6969523, “Corazonin signaling integrates energy homeostasis and lunar phase to regulate aspects of growth and sexual maturation in Platynereis” (Proceedings of the National Academy of Sciences of the …, 2019).

The target in one series is T1, CrzRb (Platynereis dumerilii, UniProt A0A291FE86).
T1 sequence (A0A291FE86 1-422): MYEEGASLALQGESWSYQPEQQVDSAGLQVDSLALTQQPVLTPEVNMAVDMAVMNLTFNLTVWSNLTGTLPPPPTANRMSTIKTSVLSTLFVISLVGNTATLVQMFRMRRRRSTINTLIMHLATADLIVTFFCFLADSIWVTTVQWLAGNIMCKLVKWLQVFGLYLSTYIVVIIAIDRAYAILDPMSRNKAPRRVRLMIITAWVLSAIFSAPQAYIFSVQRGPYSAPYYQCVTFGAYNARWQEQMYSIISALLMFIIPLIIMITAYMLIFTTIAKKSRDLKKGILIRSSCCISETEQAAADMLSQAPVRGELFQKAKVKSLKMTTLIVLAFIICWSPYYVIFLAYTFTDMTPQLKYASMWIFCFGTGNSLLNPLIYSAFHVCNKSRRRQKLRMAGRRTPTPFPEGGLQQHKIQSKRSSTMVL
Put plainly: Calcium mobilization (deorphanization) assay, CrzRb. Format: cell-based. An excerpt: (§1) We next took advantage of a cell culture-based calcium mobilization assay ([59]) for assessing the ligand–receptor interactions of these receptors. […] Given that a receptor for GnRHL3 was still missing, we tested ligand–receptor interactions of all identified Platynereis GnRH-like receptors. […] As we presently cannot exclude the existence of an additional GnRH-like receptor in Platynereis that might be activated by GnRHL3 at lower concentrations, we here use the more generic name (GnRHL3) for this ligand.
(§2) CrzRb was identified and initially deorphanized in ref. [54]. GnRHR1/AKHR1 and GnRHR2/AKHR2, as well as the second isoform of CrzR (CrzRa) were identified using an in silico approach and confirmed by cloning and sequencing. To facilitate deorphanization, cDNA of these receptors was amplified from laboratory Platynereis strains and cloned into the pcDNA3.1 (+) vector. […] Receptor activation was measured by monitoring calcium responses for 30 s on a Mithras LB 940 luminometer (Berthold Technologies). Percentage activation values of receptors were plotted for each receptor, and half maximal effective concentrations (EC50 value) were calculated using a computerized nonlinear regression analysis with a sigmoidal dose–response equation (GraphPad PRISM software). […]

Series [1] relates to GnRH-superfamily receptors. As to the kind of experiment: Activation of GnRH-superfamily receptors in vitro. Format: cell-based, Platynereis dumerilii.
Excerpt: as §1, §2

The next series has as its target T2, CrzRa (Platynereis dumerilii, UniProt A0A6B9MK47).
T2 sequence (A0A6B9MK47 1-288): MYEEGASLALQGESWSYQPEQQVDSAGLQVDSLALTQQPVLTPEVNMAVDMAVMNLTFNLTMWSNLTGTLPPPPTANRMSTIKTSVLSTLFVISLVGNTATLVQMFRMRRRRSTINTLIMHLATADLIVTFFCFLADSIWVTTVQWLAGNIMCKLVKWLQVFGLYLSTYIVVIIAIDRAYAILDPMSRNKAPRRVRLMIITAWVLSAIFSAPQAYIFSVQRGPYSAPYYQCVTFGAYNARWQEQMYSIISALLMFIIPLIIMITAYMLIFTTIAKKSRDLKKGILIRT
Put plainly: Calcium mobilization (deorphanization) assay, CrzRa. Format: cell-based.
Excerpt: as §1, §2

A further series has as its target CrzR. Put plainly: Ligand-receptor interaction, Corazonin receptor (isoform not given). Format: cell-based, Platynereis dumerilii.
Excerpt: as §1, §2

Another series deals with glucose production. The note with it: vertebrate glucagon; glycogenolysis and gluconeogenesis; ref [38], [66], [77]–[79]; cited from earlier work. An excerpt: The focus on the metabolic consequences of CRZ/GnRHL provides an interesting perspective for the cross-comparison of corazonin signaling with other signaling systems. The proposed role of worm CRZ1 in promoting the expression of α-glucosidases and pepck is reminiscent of the action of the GnRH-like AKH peptide in flies but also the role of vertebrate glucagon, an independent factor that has been discussed as a functional analog of insect AKH signaling ([38], [66], [77]–[79]). […] Thus, CRZ1/GnRHL1 see ...

The target in a further series is T3, GnRHR2/AKHR2 (Platynereis dumerilii, UniProt A0A6B9MRA0).
T3 sequence (A0A6B9MRA0 1-355): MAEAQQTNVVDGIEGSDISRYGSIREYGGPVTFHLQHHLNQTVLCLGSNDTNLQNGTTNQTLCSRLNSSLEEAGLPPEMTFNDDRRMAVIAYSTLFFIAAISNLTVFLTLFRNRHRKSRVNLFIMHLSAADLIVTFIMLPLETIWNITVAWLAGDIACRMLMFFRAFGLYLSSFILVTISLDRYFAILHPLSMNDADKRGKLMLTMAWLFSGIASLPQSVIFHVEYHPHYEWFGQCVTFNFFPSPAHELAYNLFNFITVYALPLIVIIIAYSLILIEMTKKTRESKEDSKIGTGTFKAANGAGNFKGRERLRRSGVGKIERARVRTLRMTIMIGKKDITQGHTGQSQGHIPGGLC
Put plainly: Calcium mobilization (deorphanization) assay, GnRHR2/AKHR2. Format: cell-based.
Excerpt: as §1, §2

The next series concerns the target T4, GnRHR1/AKHR1 (Platynereis dumerilii, UniProt A0A6B9MSD4).
T4 sequence (A0A6B9MSD4 1-359): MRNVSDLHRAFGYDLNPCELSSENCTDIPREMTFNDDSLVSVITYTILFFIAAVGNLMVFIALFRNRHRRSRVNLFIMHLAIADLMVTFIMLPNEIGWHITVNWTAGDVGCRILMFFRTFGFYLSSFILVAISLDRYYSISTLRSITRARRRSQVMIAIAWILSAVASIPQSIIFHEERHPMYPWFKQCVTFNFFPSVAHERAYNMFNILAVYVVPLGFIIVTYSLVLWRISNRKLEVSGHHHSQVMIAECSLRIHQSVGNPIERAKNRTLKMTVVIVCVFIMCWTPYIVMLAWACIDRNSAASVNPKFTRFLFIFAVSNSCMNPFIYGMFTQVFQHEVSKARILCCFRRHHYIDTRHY
Put plainly: Calcium mobilization (deorphanization) assay, GnRHR1/AKHR1. Format: cell-based.
Excerpt: as §1, §2

The test system of the next series is honeybee larvae. The note with it: fed with swainsonine; ref SI 20; cited from earlier work. The source says: Cons e que nce s of lys os oma l α-ma n n o si d as e im p a i r me n t s i n o t h e r s pe ci es One of the molecular consequences of knocking out the Platynereis crz1/gnrhl1 gene that we reveal in this study is the strong reduction of lysosomal α-mannosidase. In huma ...

In another series the test system is female mice. Particulars: female mice injected with leptin; ref [50]–[52]; cited from earlier work. The source says: In turn, strong interconnections between the GnRH system and metabolism can also be found in several vertebrates. […] In mammals, GnRH release is also regulated by the orexigenic neuropeptide Y (NPY) and kisspeptin, which relays both sex steroid and leptin signaling to GnRH neurons ([49]). In line with this, a high-fat diet increases hypothalamic gnrh expression in prepubescent gilts ([50]), where this treatm ...

Where [2] appears, read: CHO cells stably expressing apo-aequorin and human Gα16, transient transfection, calcium response 30 s, luminometer, nonlinear regression, at least 4 replicates in at least 2 independent experiments.
Where [3] appears, read: CHO cells, all receptor-ligand combinations tested, GnRHL3 at higher concentration (sub-micromolar to micromolar range).
The mark [4] stands for this setting: CHO cells, all receptors tested with all ligands.

Entries after “also recorded” stand apart in the source; their conditions may differ. Non-standard residues stand in square brackets, D forms with d. Residues, ends and D or L forms follow the SMILES beside them. pGlu = O=C1CC[C@@H](C(=O)O)N1

Turning to `CC(C)C[C@H](NC(=O)[C@H](CO)NC(=O)[C@H](Cc1ccccc1)NC(=O)[C@H](CO)NC(=O)[C@H](Cc1ccccc1)NC(=O)[C@@H]1CCC(=O)N1)C(=O)N1CCC[C@H]1C(=O)NCC(=O)N[C@@H](CCCCN)C(=O)N[C@@H](Cc1c[nH]c2ccccc12)C(=O)NCC(=O)N[C@@H](CC(N)=O)C(N)=O` [GnRHL3] ([pGlu]FSFSLPGKWGN-NH2), the EC50 on CrzRb (setting [2]) came out at 5800 nM; at CrzRa (setting [2]) it was 500 nM. At CrzRb (setting [3]), the “activation of CrzRb” value is “also respond; also recorded: at higher concentration”. In series [1], the “activation of GnRH-superfamily receptors in vitro” value is given as “activate GnRH-superfamily receptors in vitro”. Besides, the “activation of CrzRa” value on CrzRa (setting [3]) is “also respond; also recorded: at higher concentration”. Moreover, the “EC50 levels for CrzR activation compared with the other CRZ ligands” value at CrzR (GnRHL3-CrzR activation assay versus other CRZ ligands) is “significantly higher”. In the series on CrzR (ligand-receptor interaction analyses, isoform not stated), the “activation of CrzR” value is recorded as “activated”.
glucagon: in the series on glucose production, the “glucose production” value is recorded as “increased glucose production”.
In the case of `CC(C)C[C@H](NC(=O)[C@H](CO)NC(=O)[C@H](CCC(N)=O)NC(=O)[C@@H](NC(=O)[C@H](CC(C)C)NC(=O)[C@@H]1CCC(=O)N1)[C@@H](C)O)C(=O)NCC(=O)N[C@@H](Cc1c[nH]c2ccccc12)C(=O)NCC(=O)N[C@@H](CO)C(=O)N[C@@H](C)C(=O)NCC(=O)N[C@@H](CO)C(=O)N[C@@H](CO)C(N)=O` [GnRH2/GnRHL4] ([pGlu]LTQSLGWGSAGSS-NH2), in [1], the “activation of GnRH-superfamily receptors in vitro” value is given as “activate GnRH-superfamily receptors in vitro”. Also, the results for the EC50 at GnRHR2/AKHR2 (setting [2]) and on GnRHR1/AKHR1 (setting [2]) were 200 nM and 11.5 nM, respectively. Further, the “activation of GnRHR2/AKHR2” value on GnRHR2/AKHR2 (setting [4]) is recorded as “specifically activated; also recorded: respond only to a single ligand”. In addition, the “activation of GnRHR1/AKHR1” value at GnRHR1/AKHR1 (setting [4]) is recorded as “specifically activated; also recorded: respond only to a single ligand”.
On to `O[C@H]1[C@H]2[C@H](O)CCCN2C[C@H]1O` [swainsonine], for which the “development of honeybee larvae” value in the series with honeybee larvae is “developmental delay in pupal metamorphosis”.

B1: leptin: leptin, injected in female mice (protein, UniProt P41160 22-167, looked up)
Leptin: VPIQKVQDDTKTLIKTIVTRINDISHTQSVSAKQRVTGLDFIPGLHPILSLSKMDQTLAVYQQVLTSLPSQNVLQIANDLENLRDLLHLLAFSKSCSLPQTSGLQKPESLDGVLEASLYSTEVVALSRLQGSLQDILQQLDVSPEC
B1: in the series on female mice, the “puberty onset” value is “advances puberty onset”.
